According to ChEMBL document CHEMBL3046609, “Herbicidal properties of the thaxtomin group of phytotoxins” (2001):
Calls of active or inactive are those of the source. The rule behind the calls is not given here.

Assays:
Avena fatua [1] = assay: Post-emergence growth inhibition of Avena fatua assessed as meristematic at 0.5 to 4 kg/ha after 9 days; type: functional, organism-based
Ipomoea hederacea [2] = assay: Post-emergence herbicidal activity against Ipomoea hederacea (ivy-leaved morning glory) assessed as wilting at 0.5 to 4 kg/ha after 9 days; type: functional, organism-based
Helianthus annuus [3] = assay: Herbicidal activity against Helianthus annuus (sunflower) assessed as visual injury at 10 ug/seedling applied to meristem after 1 week relative to control; type: functional
Avena fatua [4] = assay: Post-emergence growth inhibition of Avena fatua assessed as visual injury at 1 kg/ha after 9 days relative to control; type: functional; set-up: scale not given: the % may be the effect or the level left
Helianthus annuus [5] = assay: Post-emergence growth inhibition of Helianthus annuus (sunflower) assessed as visual injury at 2 kg/ha after 9 days relative to control; type: functional; set-up: scale not given: the % may be the effect or the level left
[6] = test system: Agrostis stolonifera var. palustris; assay: Herbicidal activity against Agrostis stolonifera var. palustris assessed as visual injury at 0.04 ppm after 9 days relative to control; type: functional
Helianthus annuus [7] = assay: Post-emergence growth inhibition of Helianthus annuus (sunflower) assessed as visual injury at 0.5 kg/ha after 9 days relative to control; type: functional; set-up: scale not given: the % may be the effect or the level left
[8] = test system: Agrostis stolonifera var. palustris; assay: Herbicidal activity against Agrostis stolonifera var. palustris assessed as visual injury at 0.2 ppm after 9 days relative to control; type: functional
[9] = test system: Agrostis stolonifera var. palustris; assay: Herbicidal activity against Agrostis stolonifera var. palustris assessed as visual injury at 0.008 ppm after 9 days relative to control; type: functional
Helianthus annuus [10] = assay: Pre-emergence growth inhibition of Helianthus annuus (sunflower) assessed as visual injury at 1 kg/ha after 16 days relative to control; type: functional; set-up: scale not given: the % may be the effect or the level left
Ipomoea hederacea [11] = assay: Post-emergence herbicidal activity against Ipomoea hederacea (ivy-leaved morning glory) assessed as visual injury at 1 kg/ha after 9 days relative to control; type: functional
Lemna minor [12] = assay: Herbicidal activity against Lemna minor (common duckweed) assessed as visual injury at 0.04 ppm after 9 days relative to control; type: functional
Arabidopsis thaliana [13] = assay: Growth inhibition of Arabidopsis thaliana var. Columbia assessed as root tip puffing after 9 days by agarose-based test; type: functional, organism-based
Helianthus annuus [14] = assay: Post-emergence growth inhibition of Helianthus annuus (sunflower) assessed as visual injury at 1 kg/ha after 9 days relative to control; type: functional; set-up: scale not given: the % may be the effect or the level left
Helianthus annuus [15] = assay: Post-emergence growth inhibition of Helianthus annuus (sunflower) assessed as visual injury at 4 kg/ha after 9 days relative to control; type: functional; set-up: scale not given: the % may be the effect or the level left
Avena fatua [16] = assay: Post-emergence growth inhibition of Avena fatua after 9 days; type: functional
Echinochloa crus-galli [17] = assay: Pre-emergence herbicidal activity against Echinochloa crus-galli (barnyard grass) assessed as visual injury at 0.5 kg/ha after 16 days relative to control; type: functional
Echinochloa crus-galli [18] = assay: Pre-emergence herbicidal activity against Echinochloa crus-galli (barnyard grass) assessed as visual injury at 4 kg/ha after 16 days relative to control; type: functional
Arabidopsis thaliana [19] = assay: Growth inhibition of Arabidopsis thaliana var. Columbia assessed as stunting after 9 days by agarose-based test; type: functional, organism-based
Avena fatua [20] = assay: Post-emergence growth inhibition of Avena fatua assessed as visual injury at 4 kg/ha after 9 days relative to control; type: functional; set-up: scale not given: the % may be the effect or the level left
Lemna minor [21] = assay: Herbicidal activity against Lemna minor (common duckweed) after 9 days; type: functional
Helianthus annuus [22] = assay: Pre-emergence growth inhibition of Helianthus annuus (sunflower) assessed as visual injury at 0.5 kg/ha after 16 days relative to control; type: functional; set-up: scale not given: the % may be the effect or the level left
[23] = test system: Agrostis stolonifera var. palustris; assay: Herbicidal activity against Agrostis stolonifera var. palustris assessed as root tip puffing after 9 days by agarose-based test; type: functional, organism-based
[24] = test system: Agrostis stolonifera var. palustris; assay: Herbicidal activity against Agrostis stolonifera var. palustris after 9 days; type: functional
Abutilon theophrasti [25] = assay: Herbicidal activity against Abutilon theophrasti (velvetleaf) assessed as visual injury at 10 ug/seedling applied to leaf after 1 week relative to control; type: functional
[26] = test system: Agrostis stolonifera var. palustris; assay: Herbicidal activity against Agrostis stolonifera var. palustris assessed as visual injury at 25 ppm after 9 days relative to control; type: functional
Ipomoea hederacea [27] = assay: Post-emergence herbicidal activity against Ipomoea hederacea (ivy-leaved morning glory) after 9 days; type: functional
Echinochloa crus-galli [28] = assay: Post-emergence herbicidal activity against Echinochloa crus-galli (barnyard grass) assessed as stunting at 0.5 to 4 kg/ha after 9 days; type: functional, organism-based
Helianthus annuus [29] = assay: Post-emergence growth inhibition of Helianthus annuus (sunflower) after 9 days; type: functional
Helianthus annuus [30] = assay: Pre-emergence growth inhibition of Helianthus annuus (sunflower) assessed as meristematic at 0.5 to 4 kg/ha after 16 days; type: functional, organism-based
Arabidopsis thaliana [31] = assay: Growth inhibition of Arabidopsis thaliana var. Columbia after 9 days by agarose-based test; type: functional
Avena fatua [32] = assay: Post-emergence growth inhibition of Avena fatua assessed as visual injury at 2 kg/ha after 9 days relative to control; type: functional; set-up: scale not given: the % may be the effect or the level left
Avena fatua [33] = assay: Pre-emergence growth inhibition of Avena fatua assessed as visual injury at 0.5 kg/ha after 16 days relative to control; type: functional; set-up: scale not given: the % may be the effect or the level left
Ipomoea hederacea [34] = assay: Herbicidal activity against Ipomoea hederacea (ivy-leaved morning glory) assessed as visual injury at 10 ug/seedling applied to cotyledon after 1 week relative to control; type: functional
Avena fatua [35] = assay: Pre-emergence growth inhibition of Avena fatua assessed as meristematic at 0.5 to 4 kg/ha after 16 days; type: functional, organism-based
Avena fatua [36] = assay: Post-emergence growth inhibition of Avena fatua assessed as wilting at 0.5 to 4 kg/ha after 9 days; type: functional, organism-based
Helianthus annuus [37] = assay: Herbicidal activity against Helianthus annuus (sunflower) assessed as visual injury at 100 ug/seedling applied to cotyledon after 1 week relative to control; type: functional
Avena fatua [38] = assay: Pre-emergence growth inhibition of Avena fatua assessed as visual injury at 2 kg/ha after 16 days relative to control; type: functional; set-up: scale not given: the % may be the effect or the level left
Ipomoea hederacea [39] = assay: Pre-emergence herbicidal activity against Ipomoea hederacea (ivy-leaved morning glory) after 16 days; type: functional
Helianthus annuus [40] = assay: Post-emergence growth inhibition of Helianthus annuus (sunflower) assessed as meristematic at 0.5 to 4 kg/ha after 9 days; type: functional, organism-based
Echinochloa crus-galli [41] = assay: Post-emergence herbicidal activity against Echinochloa crus-galli (barnyard grass) assessed as visual injury at 1 kg/ha after 9 days relative to control; type: functional
Abutilon theophrasti [42] = assay: Herbicidal activity against Abutilon theophrasti (velvetleaf) assessed as visual injury at 1 ug/seedling applied to meristem after 1 week relative to control; type: functional
Helianthus annuus [43] = assay: Herbicidal activity against Helianthus annuus (sunflower) assessed as visual injury at 1 ug/seedling applied to meristem after 1 week relative to control; type: functional
Echinochloa crus-galli [44] = assay: Pre-emergence herbicidal activity against Echinochloa crus-galli (barnyard grass) assessed as stunting at 0.5 to 4 kg/ha after 16 days; type: functional, organism-based
[45] = test system: Agrostis stolonifera var. palustris; assay: Herbicidal activity against Agrostis stolonifera var. palustris assessed as visual injury at 5 ppm after 9 days relative to control; type: functional
Ipomoea hederacea [46] = assay: Herbicidal activity against Ipomoea hederacea (ivy-leaved morning glory) assessed as visual injury at 100 ug/seedling applied to cotyledon after 1 week relative to control; type: functional
Echinochloa crus-galli [47] = assay: Post-emergence herbicidal activity against Echinochloa crus-galli (barnyard grass) after 9 days; type: functional
Echinochloa crus-galli [48] = assay: Post-emergence herbicidal activity against Echinochloa crus-galli (barnyard grass) assessed as wilting at 0.5 to 4 kg/ha after 9 days; type: functional, organism-based
Ipomoea hederacea [49] = assay: Post-emergence herbicidal activity against Ipomoea hederacea (ivy-leaved morning glory) assessed as visual injury at 4 kg/ha after 9 days relative to control; type: functional
Avena fatua [50] = assay: Pre-emergence growth inhibition of Avena fatua assessed as visual injury at 1 kg/ha after 16 days relative to control; type: functional; set-up: scale not given: the % may be the effect or the level left

CN1C(=O)[C@](O)(Cc2cccc(O)c2)N(C)C(=O)[C@@H]1Cc1c[nH]c2cccc([N+](=O)[O-])c12 [THAXTOMIN A]
Activity (Avena fatua [1]): Active | Activity (Ipomoea hederacea [2]): Active | Activity (Helianthus annuus [3]): 90% | Activity (Avena fatua [4]): 30% | Activity (Helianthus annuus [5]): 85% | Activity [6]: 80% | Activity (Helianthus annuus [7]): 75% | Activity [8]: 100% | Activity [9]: 50% | Activity (Helianthus annuus [10]): 100% | Activity (Ipomoea hederacea [11]): 80% | Activity (Lemna minor [12]): 70% | growth inhibition (GI) (Arabidopsis thaliana [13]): Active | Activity (Helianthus annuus [14]): 85% | Activity (Helianthus annuus [15]): 85% | GR50 (Avena fatua [16]): 2 kg/ha | Activity (Echinochloa crus-galli [17]): 98% | Activity (Echinochloa crus-galli [18]): 100% | growth inhibition (GI) (Arabidopsis thaliana [19]): Active | Activity (Avena fatua [20]): 80% | GR50 (Lemna minor [21]): 5 ppb | Activity (Helianthus annuus [22]): 70% | Activity [23]: Active | GR50 [24]: 12 ppb | Activity (Abutilon theophrasti [25]): 0% | Activity [26]: 100% | GR50 (Ipomoea hederacea [27]): <500 g/ha | Activity (Echinochloa crus-galli [28]): Active | GR50 (Helianthus annuus [29]): <500 g/ha | Activity (Helianthus annuus [30]): Active | I50 (Arabidopsis thaliana [31]): 10 ppb | Activity (Avena fatua [32]): 20% | Activity (Avena fatua [33]): 100% | Activity (Ipomoea hederacea [34]): 0% | Activity (Avena fatua [35]): Active | Activity (Avena fatua [36]): Active | Activity (Helianthus annuus [37]): 0% | Activity (Avena fatua [38]): 100% | GR50 (Ipomoea hederacea [39]): <500 g/ha | Activity (Helianthus annuus [40]): Active | Activity (Echinochloa crus-galli [41]): 20% | Activity (Abutilon theophrasti [42]): 20% | Activity (Helianthus annuus [43]): 50% | Activity (Echinochloa crus-galli [44]): Active | Activity [45]: 100% | Activity (Ipomoea hederacea [46]): 0% | GR50 (Echinochloa crus-galli [47]): 2 kg/ha | Activity (Echinochloa crus-galli [48]): Active | Activity (Ipomoea hederacea [49]): 85% | Activity (Avena fatua [50]): 100%
